Values of other authors, collected in patent publication US20020025341A1, “Controlled release formulation of divalproex sodium” (priority 1998, published 2002).
Where two headings read alike, the source gives them in different places.

Legend:
[1] = patients consuming valproate
[2] = system: plasma proteins

Structure (SMILES)	half life (in adults)	half life (in children)	patients affected by GI irritation [1]	free fraction (plasma protein binding) ([2]; at 40 μg/ml)	free fraction (plasma protein binding) ([2]; at 130 μg/ml) [%]
CCCC(CCC)C(=O)O [valproic acid, 2-Propylpentanoic acid]	between six and seventeen hours	between four and fourteen hours			
CCCC(CCC)C(=O)O [valproate]			up to one third of patients	approximately 10%	18.5
